Test results taken from patent US20220009920A1 (GB005, Inc., priority 2020, published 2022).

Assays:
Assay in all cases: Large panel kinase profiling
Assay type in all cases: biochemical
Conditions in all cases: 1 μM test article, 1 mM ATP
AKT2 = AKT2 (Homo sapiens, UniProt P31751)
Outline: (§1)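 Kinase activity was followed with the PhosphoSens CSox-Sensor platform, testing compound at 1 μM in the presence of 1 mM ATP. Reactions ran at 30° C. and fluorescence (Ex 360 nm/Em 485 nm) was read kinetically every 1 min.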

MAP4K3/GLK = target: T1, MAP4K3/GLK (Homo sapiens, UniProt Q8IVH8)
T1 construct: AssayQuant Technologies, Inc. (service provider)
T1 sequence (Q8IVH8 1-894): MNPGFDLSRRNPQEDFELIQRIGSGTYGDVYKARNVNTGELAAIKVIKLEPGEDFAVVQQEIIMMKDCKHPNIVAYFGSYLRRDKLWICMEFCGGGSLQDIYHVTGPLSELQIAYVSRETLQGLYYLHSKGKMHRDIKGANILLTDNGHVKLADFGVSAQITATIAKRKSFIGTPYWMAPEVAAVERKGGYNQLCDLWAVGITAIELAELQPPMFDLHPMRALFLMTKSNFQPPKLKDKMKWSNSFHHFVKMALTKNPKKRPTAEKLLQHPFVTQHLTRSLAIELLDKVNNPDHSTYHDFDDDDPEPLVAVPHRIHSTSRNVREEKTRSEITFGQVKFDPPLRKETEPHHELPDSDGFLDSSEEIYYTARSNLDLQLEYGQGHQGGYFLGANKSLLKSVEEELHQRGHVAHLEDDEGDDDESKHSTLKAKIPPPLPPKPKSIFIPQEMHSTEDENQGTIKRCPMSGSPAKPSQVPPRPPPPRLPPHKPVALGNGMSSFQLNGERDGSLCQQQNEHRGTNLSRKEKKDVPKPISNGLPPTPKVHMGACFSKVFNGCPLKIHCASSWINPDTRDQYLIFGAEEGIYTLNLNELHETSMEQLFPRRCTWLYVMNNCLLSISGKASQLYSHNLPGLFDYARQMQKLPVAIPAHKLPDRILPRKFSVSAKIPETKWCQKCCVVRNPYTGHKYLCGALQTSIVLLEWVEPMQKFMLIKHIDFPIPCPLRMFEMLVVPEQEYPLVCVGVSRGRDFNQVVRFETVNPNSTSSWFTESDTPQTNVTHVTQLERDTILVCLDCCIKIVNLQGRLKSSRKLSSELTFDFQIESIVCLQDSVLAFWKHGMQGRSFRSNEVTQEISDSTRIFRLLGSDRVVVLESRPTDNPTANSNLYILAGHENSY
Outline: as §1

DDR1 = target: T2, DDR1 (Homo sapiens, UniProt Q08345)
T2 construct: AssayQuant Technologies, Inc. (service laboratory)
T2 sequence (Q08345 19-913, species assumed): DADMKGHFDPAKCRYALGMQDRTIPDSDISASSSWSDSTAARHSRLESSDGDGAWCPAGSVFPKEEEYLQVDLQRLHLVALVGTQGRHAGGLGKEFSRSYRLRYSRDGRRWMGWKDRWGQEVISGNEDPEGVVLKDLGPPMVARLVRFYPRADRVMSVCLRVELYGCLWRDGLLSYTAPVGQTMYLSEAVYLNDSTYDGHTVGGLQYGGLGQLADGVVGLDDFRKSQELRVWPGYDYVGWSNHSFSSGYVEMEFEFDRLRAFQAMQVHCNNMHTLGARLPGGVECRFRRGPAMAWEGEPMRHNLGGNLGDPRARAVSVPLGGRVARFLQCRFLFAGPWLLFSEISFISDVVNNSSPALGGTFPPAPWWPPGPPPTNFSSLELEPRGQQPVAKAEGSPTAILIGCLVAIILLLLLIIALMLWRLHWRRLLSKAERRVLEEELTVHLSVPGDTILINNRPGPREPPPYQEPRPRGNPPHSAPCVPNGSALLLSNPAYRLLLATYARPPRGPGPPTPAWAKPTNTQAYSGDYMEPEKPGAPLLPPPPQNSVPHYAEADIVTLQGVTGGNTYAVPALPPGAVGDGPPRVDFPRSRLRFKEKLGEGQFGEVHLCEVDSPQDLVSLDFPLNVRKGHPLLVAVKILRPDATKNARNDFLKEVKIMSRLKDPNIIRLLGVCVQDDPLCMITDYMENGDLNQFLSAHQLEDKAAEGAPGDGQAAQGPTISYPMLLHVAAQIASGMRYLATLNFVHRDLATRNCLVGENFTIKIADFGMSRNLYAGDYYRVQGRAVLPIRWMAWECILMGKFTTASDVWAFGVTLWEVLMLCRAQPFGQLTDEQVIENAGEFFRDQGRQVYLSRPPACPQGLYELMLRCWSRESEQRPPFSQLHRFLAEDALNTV
Outline: as §1

MASTL = target: T3, MASTL (Homo sapiens, UniProt Q96GX5)
T3 construct: AssayQuant Technologies, Inc. (assay service)
T3 sequence (Q96GX5 1-879): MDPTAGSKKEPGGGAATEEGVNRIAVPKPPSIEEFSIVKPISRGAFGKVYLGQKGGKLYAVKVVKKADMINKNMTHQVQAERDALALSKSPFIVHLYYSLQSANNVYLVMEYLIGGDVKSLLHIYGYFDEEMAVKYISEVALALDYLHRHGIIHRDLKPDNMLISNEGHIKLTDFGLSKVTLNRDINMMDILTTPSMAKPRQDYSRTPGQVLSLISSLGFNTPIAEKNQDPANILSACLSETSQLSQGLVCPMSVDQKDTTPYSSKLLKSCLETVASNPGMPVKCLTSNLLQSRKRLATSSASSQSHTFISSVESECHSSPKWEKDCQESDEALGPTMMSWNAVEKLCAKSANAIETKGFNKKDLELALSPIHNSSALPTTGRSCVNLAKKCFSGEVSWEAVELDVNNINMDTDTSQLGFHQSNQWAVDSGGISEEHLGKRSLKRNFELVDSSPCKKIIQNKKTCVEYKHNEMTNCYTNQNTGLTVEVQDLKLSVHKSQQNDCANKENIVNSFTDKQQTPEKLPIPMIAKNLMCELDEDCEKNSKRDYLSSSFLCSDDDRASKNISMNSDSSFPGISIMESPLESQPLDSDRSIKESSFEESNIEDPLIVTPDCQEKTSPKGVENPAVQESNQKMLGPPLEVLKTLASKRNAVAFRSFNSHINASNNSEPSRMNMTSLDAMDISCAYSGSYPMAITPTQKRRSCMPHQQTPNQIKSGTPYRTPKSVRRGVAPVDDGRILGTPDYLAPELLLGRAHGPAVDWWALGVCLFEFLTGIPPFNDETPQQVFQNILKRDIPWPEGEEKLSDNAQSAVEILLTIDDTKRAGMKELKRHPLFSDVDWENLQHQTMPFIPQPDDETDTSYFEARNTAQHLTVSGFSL
Outline: as §1

CSNK1D/CK1D = target: T4, CSNK1D/CK1D (Homo sapiens, UniProt P48730)
T4 construct: AssayQuant Technologies, Inc. (service laboratory)
T4 sequence (P48730 whole entry): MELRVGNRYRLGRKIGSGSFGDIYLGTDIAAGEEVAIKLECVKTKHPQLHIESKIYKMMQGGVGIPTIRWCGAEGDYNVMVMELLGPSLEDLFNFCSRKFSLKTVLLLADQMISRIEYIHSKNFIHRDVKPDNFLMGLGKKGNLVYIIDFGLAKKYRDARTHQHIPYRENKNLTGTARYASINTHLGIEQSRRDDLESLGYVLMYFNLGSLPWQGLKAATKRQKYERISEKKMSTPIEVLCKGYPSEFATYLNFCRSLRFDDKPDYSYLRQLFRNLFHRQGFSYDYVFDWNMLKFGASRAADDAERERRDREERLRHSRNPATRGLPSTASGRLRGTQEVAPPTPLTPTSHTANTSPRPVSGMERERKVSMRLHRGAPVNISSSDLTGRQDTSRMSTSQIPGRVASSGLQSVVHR
Outline: as §1

MAP3K3 = target: T5, MAP3K3 (Homo sapiens, UniProt Q99759)
T5 construct: AssayQuant Technologies, Inc. (service provider)
T5 sequence (Q99759 1-626): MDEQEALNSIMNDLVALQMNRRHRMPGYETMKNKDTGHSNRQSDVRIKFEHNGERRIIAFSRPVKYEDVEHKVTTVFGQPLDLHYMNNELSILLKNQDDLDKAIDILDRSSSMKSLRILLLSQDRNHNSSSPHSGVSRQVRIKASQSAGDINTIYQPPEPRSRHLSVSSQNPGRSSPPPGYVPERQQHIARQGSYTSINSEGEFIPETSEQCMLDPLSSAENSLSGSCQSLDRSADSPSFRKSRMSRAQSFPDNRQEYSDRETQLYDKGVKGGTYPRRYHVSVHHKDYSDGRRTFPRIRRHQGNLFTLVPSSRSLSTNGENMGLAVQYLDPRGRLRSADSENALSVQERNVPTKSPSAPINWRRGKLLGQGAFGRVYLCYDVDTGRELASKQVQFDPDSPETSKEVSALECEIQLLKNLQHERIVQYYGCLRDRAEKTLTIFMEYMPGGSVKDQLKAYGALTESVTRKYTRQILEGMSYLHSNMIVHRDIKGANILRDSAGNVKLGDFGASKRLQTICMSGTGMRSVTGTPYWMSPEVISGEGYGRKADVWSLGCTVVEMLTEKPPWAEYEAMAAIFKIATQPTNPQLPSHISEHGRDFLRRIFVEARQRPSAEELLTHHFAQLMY
Outline: as §1

AKT2, sequence (P31751 whole entry): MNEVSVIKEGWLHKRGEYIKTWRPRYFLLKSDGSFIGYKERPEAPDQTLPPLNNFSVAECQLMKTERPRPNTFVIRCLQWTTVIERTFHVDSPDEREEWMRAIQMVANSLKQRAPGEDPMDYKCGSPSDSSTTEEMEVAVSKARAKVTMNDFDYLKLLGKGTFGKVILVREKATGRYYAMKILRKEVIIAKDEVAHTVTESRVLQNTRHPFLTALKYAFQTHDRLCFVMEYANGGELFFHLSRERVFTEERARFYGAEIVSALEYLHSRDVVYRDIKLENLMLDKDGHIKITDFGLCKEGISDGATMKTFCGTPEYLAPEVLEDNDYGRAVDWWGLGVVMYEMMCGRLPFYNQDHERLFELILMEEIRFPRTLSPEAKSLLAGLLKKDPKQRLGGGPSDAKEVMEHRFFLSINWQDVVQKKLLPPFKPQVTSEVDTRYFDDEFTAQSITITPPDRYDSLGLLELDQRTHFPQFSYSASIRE

SMILES	inhibition at 1 µM (AKT2) [%]	inhibition at 1 µM (MAP4K3/GLK) [%]	inhibition at 1 µM (DDR1) [%]	inhibition at 1 µM (MASTL) [%]	inhibition at 1 µM (CSNK1D/CK1D) [%]	inhibition at 1 µM (MAP3K3) [%]
C=CC(=O)N1CCCC(c2c(F)cc(C(N)=O)c3[nH]c4c(c23)CCCCC4)C1 (single isomer, unassigned) [Compound 5-6]	0.5	-7.3	1.4	2.2	4.2	-7
C=CC(=O)N1CCC[C@@H](c2c(F)cc(C(N)=O)c3[nH]c4c(c23)CCC4)C1 [Compound 10-2, (S)-8-(1-acryloylpiperidin-3-yl)-7-fluoro-1,2,3,4-tetrahydrocyclo-penta[b]indole-5-carboxamide]	11.9	5	-41.1	-10.2	16.5	19.9
C=CC(=O)N1CCC[C@@H](c2c(F)cc(C(N)=O)c3[nH]c4c(c23)CC2(CC4)CC2)C1 [Compound 6-2, (S)-5-(1-acryloylpiperidin-3-yl)-6-fluoro-1,2,4,9-tetrahydrospiro[carbazole-3,1′-cyclopropane]-8-carboxamide]	0.4	6.2	24.5	-9	11.7	-3.6
